Active and inactive are the calls of the source. The calls are words filed in the database; no cut-off is given here.
Columns and labels:
[1] = target: T1, Protein cereblon/Bromodomain-containing protein 4 (Homo sapiens) (UniProt O60885+Q96SW2); test: PROTAC activity at CRBN/BRD4 in human MCF7 cells assessed as induction of BRD4 degradation at 1 uM measured after 18 hrs in presence of MLN4924 by Western blot analysis; format: cell-based
[2] = target: T1, Protein cereblon/Bromodomain-containing protein 4 (Homo sapiens); test: PROTAC activity at CRBN/BRD4 in human MCF7 cells assessed as induction of BRD4 degradation measured after 6 to 24 hrs by Western blot analysis; format: cell-based; conditions: dose <= 1.0 µM, time 6-24 hrs
[3] = target: T1, Protein cereblon/Bromodomain-containing protein 4 (Homo sapiens); test: PROTAC activity at CRBN/BRD4 in human MCF7 cells assessed as induction of BRD4 degradation at 1 uM measured after 18 hrs in presence of MG132 by Western blot analysis; format: cell-based
[4] = target: T1, Protein cereblon/Bromodomain-containing protein 4 (Homo sapiens); test: PROTAC activity at CRBN/BRD4 in human MCF7 cells assessed as induction of BRD4 degradation at 1 uM measured after 24 hrs by Western blot analysis relative to control; format: cell-based
[5] = target: T1, Protein cereblon/Bromodomain-containing protein 4 (Homo sapiens); test: PROTAC activity at CRBN/BRD4 in human MCF7 cells assessed as induction of BRD4 degradation at 1 uM measured after 18 hrs in presence of […] by Western blot analysis; format: cell-based
[6] = target: T1, Protein cereblon/Bromodomain-containing protein 4 (Homo sapiens); test: PROTAC activity at CRBN/BRD4 in human MCF7 cells assessed as induction of BRD4 degradation at 1 uM measured after 24 hrs by Western blot analysis; format: cell-based
[7] = target: T1, Protein cereblon/Bromodomain-containing protein 4 (Homo sapiens); test: PROTAC activity at CRBN/BRD4 in human MCF7 cells assessed as induction of BRD4 degradation at 1 uM measured after 6 to 24 hrs by Western blot analysis relative to control; format: cell-based; conditions: time 6-24 hrs
[8] = Stability of the compound assessed as UV-light induced degradation measured after 30 mins by HPLC analysis; format: physicochemical; conditions: 0.5 h

T1 sequence (Q96SW2 whole entry, looked up, other chains not shown): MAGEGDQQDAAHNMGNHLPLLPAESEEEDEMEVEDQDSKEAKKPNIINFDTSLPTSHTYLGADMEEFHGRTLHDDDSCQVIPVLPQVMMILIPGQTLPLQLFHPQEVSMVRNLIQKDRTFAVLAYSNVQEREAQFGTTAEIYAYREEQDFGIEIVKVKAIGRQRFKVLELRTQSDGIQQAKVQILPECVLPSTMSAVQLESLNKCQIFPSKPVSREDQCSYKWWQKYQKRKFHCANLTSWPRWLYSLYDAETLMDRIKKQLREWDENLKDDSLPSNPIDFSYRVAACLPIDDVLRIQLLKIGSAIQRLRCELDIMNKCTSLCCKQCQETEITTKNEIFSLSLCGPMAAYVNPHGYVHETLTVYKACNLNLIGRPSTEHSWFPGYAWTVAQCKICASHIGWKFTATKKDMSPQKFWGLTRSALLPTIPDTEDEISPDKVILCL

Activity [1]	Activity [2]	Activity [3]	Activity [4] [%]	Activity [5]	Activity [6]	Activity [7] [%]	Stability [8]	SMILES
inactive	Dose-Dependent Effect	inactive	> 80	inactive	Active	–	–	Cc1sc2c(c1C)C(c1ccc(Cl)cc1)=N[C@@H](CC(=O)NCCNC(=O)OCc1cc(OCCCNc3cccc4c3C(=O)N(C3CCC(=O)NC3=O)C4=O)ccc1[N+](=O)[O-])c1nnc(C)n1-2 (some centres undefined)
inactive	Dose-Dependent Effect	inactive	> 80	inactive	Active	> 80	Unstable	Cc1sc2c(c1C)C(c1ccc(Cl)cc1)=N[C@@H](CC(=O)NCCCNC(=O)OCc1cc(OCCCNc3cccc4c3C(=O)N(C3CCC(=O)NC3=O)C4=O)ccc1[N+](=O)[O-])c1nnc(C)n1-2 (some centres undefined)
inactive	–	inactive	> 80	inactive	Active	–	–	Cc1sc2c(c1C)C(c1ccc(Cl)cc1)=N[C@@H](CC(=O)NCCCNC(=O)OCc1cc(OCCCNC(=O)CNc3cccc4c3C(=O)N(C3CCC(=O)NC3=O)C4=O)ccc1[N+](=O)[O-])c1nnc(C)n1-2 (some centres undefined)
